29 compounds from patent publication US20220313698A1, “MODULATORS OF CYSTIC FIBROSIS TRANSMEMBRANE CONDUCTANCE REGULATOR” (Vertex Pharmaceuticals Incorporated, priority 2019, published 2022) can be followed below.

Usually EC50 stands for the concentration giving half of the maximal effect.

The structures appear in SMILES notation.

The test deals with CFTR-mediated chloride transport (Homo sapiens, UniProt P13569). Put plainly: Corrector Assay A - membrane potential dye assay (enteroid cells). The settings on record: for EC50: read-out: Corrector Assay A EC50, human intestinal enteroid cells, 18-24 h incubation, acute 10 μM forskolin + 300 nM ivacaftor.
Setting [1] is: % of chloride transport of triple combination control (1 μM (14S)-dispiro macrocycle + 3 μM tezacaftor + 300 nM ivacaftor).

`Cn1nccc1-c1ccc(C2CC[C@@H]3CN(c4nc(C(C)(C)C)ccc4C(=O)NS(=O)(=O)c4cccc(n4)N2)C(C)(C)C3)nc1` (stereo partly shown) [Compound 58]: the EC50 was less than 1 µM. For the same compound, the “Corrector Assay A % activity” value under setting [1] is given as “+++ (+++ is >60%)”.
`CN(C)C(=O)CCCC1CC[C@@H]2CN(c3nc(C(C)(C)C)ccc3C(=O)NS(=O)(=O)c3cccc(n3)N1)C(C)(C)C2` (stereo partly drawn) [Compound 18, 4-[(14S)-8-tert-Butyl-12,12-dimethyl-2,2,4-trioxo-2λ^6-thia-3,9,11,18,23-pentaazatetracyclo[17.3.1.111,14.05,10]tetracosa-1(23),5(10),6,8,19,21-hexaen-17-yl]-N,N-dimethylbutanamide]: the EC50 is less than 1 µM. Further, under setting [1], the “Corrector Assay A % activity” value is reported as “+++ (+++ is >60%)”.
Turning to `CC(C)(C)OC(=O)N1CCC2(CC1)CC(NC(=O)[C@@H]1CC[C@@H]3CN(c4nc(C(C)(C)C)ccc4C(=O)NS(=O)(=O)c4cccc(n4)N1)C(C)(C)C3)C2` [Compound 227], the EC50 is 1 to 3 µM. Besides, the “Corrector Assay A % activity” value under setting [1] is recorded as “+ (+ is <30%)”.
For the compound `CC(C)(C)c1ccc2c(n1)N1CC(CCCOc3cccc(c3)S(=O)(=O)NC2=O)CC1(C)C` (single isomer, unassigned) [Compound 256, 8-tert-butyl-12,12-dimethyl-18-oxa-2λ^6-thia-3,9,11-triazatetracyclo[17.3.1.111,14.05,10]tetracosa-1(22),5,7,9,19(23),20-hexaene-2,2,4-trione], the EC50 was less than 1 µM. Under setting [1], the “Corrector Assay A % activity” value was “++ (++ is 30-60%)”.
Regarding `CC(C)(C)CCOc1cccc(-c2ccc3c(n2)N2C[C@@H](CC[C@H](c4cc(C(C)(C)C)ccn4)Nc4cccc(n4)S(=O)(=O)NC3=O)CC2(C)C)n1` [Compound 303, (14S,17R)-17-(4-tert-butylpyridin-2-yl)-8-[6-(3,3-dimethylbutoxy)pyridin-2-yl]-12,12-dimethyl-2λ^6-thia-3,9,11,18,23-pentaazatetracyclo[17.3.1.111,14.05,10]tetracosa-1(22),5,7,9,19(23),20-hexaene-2,2,4-trione], the EC50 was less than 1 µM. In addition, the “Corrector Assay A % activity” value under setting [1] is “+++ (+++ is >60%)”.
In the case of `CC(C)(C)c1ccc2c(n1)N1C[C@@H](CCC(c3ccccc3)n3ccc(n3)S(=O)(=O)NC2=O)CC1(C)C` (single isomer, unassigned) [Compound 274], the EC50 is less than 1 µM. In addition, under setting [1], the “Corrector Assay A % activity” value was “++ (++ is 30-60%)”.
Turning to `CC(C)(C)c1ccc2c(n1)N1C[C@@H](CCC(c3cc(C(N)=O)ccn3)Nc3cccc(n3)S(=O)(=O)NC2=O)CC1(C)C` (single isomer, unassigned) [Compound 82], the half-maximal effective concentration (EC50) was less than 1 µM. Also, the “Corrector Assay A % activity” value under setting [1] is given as “++ (++ is 30-60%)”.
For `CC(C)(C)c1ccc2c(n1)N1C[C@@H](CC[C@@H](c3cccc(C4CCNCC4)n3)Nc3cccc(n3)S(=O)(=O)NC2=O)CC1(C)C` [Compound 131] the same measures were greater than 3 µM and “+ (+ is <30%)”.
Turning to `CC(C)(C)c1ccc2c(n1)N1C[C@@H](CCC(c3ccc(-c4cn[nH]c4)cn3)Nc3cccc(n3)S(=O)(=O)NC2=O)CC1(C)C` (stereo partly shown) [Compound 135], the 50% effective concentration (EC50) was less than 1 µM. Further, the “Corrector Assay A % activity” value under setting [1] is on record as “++ (++ is 30-60%)”.
The like results for `CC(C)(C)c1ccc2c(n1)N1C[C@@H](CC[C@H](c3cccc(-c4ccn[nH]4)n3)Nc3cccc(n3)S(=O)(=O)NC2=O)CC1(C)C` [Compound 77] were, in that order, less than 1 µM and “++ (++ is 30-60%)”.
With `CC(C)(C)NC(=O)CCCC1CC[C@@H]2CN(c3nc(C(C)(C)C)ccc3C(=O)NS(=O)(=O)c3cccc(n3)N1)C(C)(C)C2` (stereo partly drawn) [Compound 16, N-tert-butyl-4-[(14S)-8-tert-butyl-12,12-dimethyl-2,2,4-trioxo-2λ^6-thia-3,9,11,18,23-pentaazatetracyclo[17.3.1.111,14.05,10]tetracosa-1(23),5(10),6,8,19,21-hexaen-17-yl]butanamide], the EC50 is less than 1 µM. In addition, under setting [1], the “Corrector Assay A % activity” value is on record as “+++ (+++ is >60%)”.
Take `CC(C)(C)c1ccc2c(n1)N1C[C@@H](CCC(C)(c3ccccn3)Nc3cccc(n3)S(=O)(=O)NC2=O)CC1(C)C` (single isomer, unassigned) [Compound 45]: the EC50 was less than 1 µM. Moreover, the “Corrector Assay A % activity” value under setting [1] is reported as “++ (++ is 30-60%)”.
As to `CC(C)(C)c1ccc2c(n1)N1C[C@@H](CC[C@@H](c3cc(C4=CCOCC4)ccn3)Nc3cccc(n3)S(=O)(=O)NC2=O)CC1(C)C` (single isomer, unassigned) [Compound 126], the EC50 was less than 1 µM. Under setting [1], the “Corrector Assay A % activity” value is reported as “+++ (+++ is >60%)”.
Take `CC1(C)C[C@@H]2CC[C@H](c3ccccn3)Nc3cccc(n3)S(=O)(=O)NC(=O)c3ccc(-c4c(Cl)cccc4Cl)nc3N1C2` [Compound 341]: the EC50 is less than 1 µM. Also, the “Corrector Assay A % activity” value under setting [1] is “+++ (+++ is >60%)”.
As for `CC1(C)CCCc2cc3c(nc21)N1C[C@@H](CCC(c2ccccn2)Nc2cccc(n2)S(=O)(=O)NC3=O)CC1(C)C` (single isomer, unassigned) [Compound 263], the EC50 is less than 1 µM. Moreover, the “Corrector Assay A % activity” value under setting [1] is “+++ (+++ is >60%)”.
As to `CC(C)(C)CCOc1ccn(-c2ccc3c(n2)N2C[C@@H](CC[C@H](c4ccccn4)Nc4cccc(n4)S(=O)(=O)NC3=O)CC2(C)C)n1` [Compound 320, (14S,17R)-8-[3-(3,3-dimethylbutoxy)-1H-pyrazol-1-yl]-12,12-dimethyl-17-(pyridin-2-yl)-2λ^6-thia-3,9,11,18,23-pentaazatetracyclo[17.3.1.111,14.05,10]tetracosa-1(22),5,7,9,19(23),20-hexaene-2,2,4-trione], the EC50 was less than 1 µM. For the same compound, under setting [1], the “Corrector Assay A % activity” value is reported as “+++ (+++ is >60%)”.
With `CC(C)(C)c1ccc2c(n1)N1C[C@@H](CCC(c3cc(C#N)ccn3)Nc3cccc(n3)S(=O)(=O)NC2=O)CC1(C)C` (single isomer, unassigned) [Compound 143], the EC50 is less than 1 µM. Besides, the “Corrector Assay A % activity” value under setting [1] is listed as “++ (++ is 30-60%)”.
The like results for `CC(C)(C)c1ccc2c(n1)N1C[C@@H](CC[C@@H](c3cc(C4CCOCC4)ccn3)Nc3cccc(n3)S(=O)(=O)NC2=O)CC1(C)C` (single isomer, unassigned) [Compound 121] were, in that order, less than 1 µM and “+++ (+++ is >60%)”.
As to `CC(C)c1cnn(-c2ccc3c(n2)N2C[C@@H](CC[C@H](c4ccccn4)Nc4cccc(n4)S(=O)(=O)NC3=O)CC2(C)C)c1` [Compound 323], the EC50 is less than 1 µM. The “Corrector Assay A % activity” value under setting [1] is listed as “++ (++ is 30-60%)”.
For the compound `CC(C)(C)c1ccc2c(n1)N1C[C@@H](CC[C@@H](c3cc(-c4cc[nH]n4)ccn3)Nc3cccc(n3)S(=O)(=O)NC2=O)CC1(C)C` (single isomer, unassigned) [Compound 74], the EC50 was less than 1 µM. The “Corrector Assay A % activity” value under setting [1] is “++ (++ is 30-60%)”.
Take `CC(C)Cc1ccc(C2CC[C@@H]3CN(c4nc(C(C)(C)C)ccc4C(=O)NS(=O)(=O)c4cccc(n4)N2)C(C)(C)C3)nc1` (stereo partly shown) [Compound 180]: the EC50 was less than 1 µM. The “Corrector Assay A % activity” value under setting [1] was “+++ (+++ is >60%)”.
Consider `CC(C)(C)c1ccnc(C2CC[C@@H]3CN(c4nc(C(C)(C)C)ccc4C(=O)NS(=O)(=O)c4cccc(n4)N2)C(C)(C)C3)c1` (single isomer, unassigned) [Compound 76], for which the EC50 is less than 1 µM. Besides, the “Corrector Assay A % activity” value under setting [1] is “++ (++ is 30-60%)”.
`COCCN1CCC2(CC1)CC(NC(=O)C1CC[C@@H]3CN(c4nc(C(C)(C)C)ccc4C(=O)NS(=O)(=O)c4cccc(n4)N1)C(C)(C)C3)C2` (single isomer, unassigned) [Compound 220]: the EC50 was 1 to 3 µM. Further, the “Corrector Assay A % activity” value under setting [1] is on record as “+++ (+++ is >60%)”.
For `CC(C)(C)CCOc1ccn(-c2ccc3c(n2)N2C[C@@H](CC[C@H](c4cc(C(C)(C)C)ccn4)Nc4cccc(n4)S(=O)(=O)NC3=O)CC2(C)C)n1` [Compound 305, (14S,17R)-17-(4-tert-butylpyridin-2-yl)-8-[3-(3,3-dimethylbutoxy)-1H-pyrazol-1-yl]-12,12-dimethyl-2λ^6-thia-3,9,11,18,23-pentaazatetracyclo[17.3.1.111,14.05,10]tetracosa-1(22),5,7,9,19(23),20-hexaene-2,2,4-trione] the same measures were less than 1 µM and “+++ (+++ is >60%)”.
For the compound `CC(C)(C)c1ccc2c(n1)N1C[C@@H](CCC(C3CCN(C(=O)OCc4ccccc4)CC3)Nc3cccc(n3)S(=O)(=O)NC2=O)CC1(C)C` (single isomer, unassigned) [Compound 254], the EC50 was less than 1 µM. In addition, the “Corrector Assay A % activity” value under setting [1] is “+ (+ is <30%)”.
`CC(C)(C)c1ccc2c(n1)N1C[C@@H](CC[C@@H](c3cc(C(F)(F)F)ccn3)Nc3cccc(n3)S(=O)(=O)NC2=O)CC1(C)C` (single isomer, unassigned) [Compound 92]: the EC50 is less than 1 µM. Moreover, the “Corrector Assay A % activity” value (given as a number, not a class symbol, % of triple combination control) was found to be 52.5%.
In the case of `CC(C)(C)c1ccnc([C@@H]2CC[C@@H]3CN(c4nc5ccccc5cc4C(=O)NS(=O)(=O)c4cccc(n4)N2)C(C)(C)C3)c1` (single isomer, unassigned) [Compound 9], the EC50 was less than 1 µM. In addition, the “Corrector Assay A % activity” value under setting [1] is “+++ (+++ is >60%)”.
With `CC(C)(C)c1ccc2c(n1)N1C[C@@H](CCC(c3ccc(CCC#N)cn3)Nc3cccc(n3)S(=O)(=O)NC2=O)CC1(C)C` (stereo partly drawn) [Compound 146, 3-{6-[(14S)-8-tert-butyl-12,12-dimethyl-2,2,4-trioxo-2λ^6-thia-3,9,11,18,23-pentaazatetracyclo[17.3.1.111,14.05,10]tetracosa-1(23),5(10),6,8,19,21-hexaen-17-yl]pyridin-3-yl}propanenitrile], the EC50 was less than 1 µM. The “Corrector Assay A % activity” value under setting [1] is recorded as “+++ (+++ is >60%)”.
The like results for `COCCc1ccc(C2CC[C@@H]3CN(c4nc(C(C)(C)C)ccc4C(=O)NS(=O)(=O)c4cccc(n4)N2)C(C)(C)C3)nc1` (stereo partly shown) [Compound 112] were, in that order, less than 1 µM and “++ (++ is 30-60%)”.
